Experiments:
[1] = molecular target: baculovirus-expressed JAK2 kinase (Homo sapiens, UniProt O60674); assay: biochemical; conditions: 0.2 μM ATP; read-out: JAK2 Potency
Method in brief: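 IC50 derived by variable-slope sigmoidal fit of percent inhibition against log compound concentration. Baculovirus-expressed JAK2 (15 ng/mL) phosphorylated a plate-bound biotinylated 15-mer peptide for 20 min at room temperature; detection by time-resolved fluorescence.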

[2] = molecular target: baculovirus-expressed ALK (Homo sapiens, UniProt Q9UM73); assay: ALK kinase inhibition, TRF/ELISA; format: biochemical; conditions: read-out: ALK Potency
Method in brief: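 Eu-PT66 anti-phosphotyrosine TRF read-out measured phosphorylation of plate-bound GST-PLC-γ (coated at 10 μg/mL). The phosphorylation was driven by 30 ng/mL ALK for 15 minutes at 37° C.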

Sequence of baculovirus-expressed ALK (Q9UM73 19-1620): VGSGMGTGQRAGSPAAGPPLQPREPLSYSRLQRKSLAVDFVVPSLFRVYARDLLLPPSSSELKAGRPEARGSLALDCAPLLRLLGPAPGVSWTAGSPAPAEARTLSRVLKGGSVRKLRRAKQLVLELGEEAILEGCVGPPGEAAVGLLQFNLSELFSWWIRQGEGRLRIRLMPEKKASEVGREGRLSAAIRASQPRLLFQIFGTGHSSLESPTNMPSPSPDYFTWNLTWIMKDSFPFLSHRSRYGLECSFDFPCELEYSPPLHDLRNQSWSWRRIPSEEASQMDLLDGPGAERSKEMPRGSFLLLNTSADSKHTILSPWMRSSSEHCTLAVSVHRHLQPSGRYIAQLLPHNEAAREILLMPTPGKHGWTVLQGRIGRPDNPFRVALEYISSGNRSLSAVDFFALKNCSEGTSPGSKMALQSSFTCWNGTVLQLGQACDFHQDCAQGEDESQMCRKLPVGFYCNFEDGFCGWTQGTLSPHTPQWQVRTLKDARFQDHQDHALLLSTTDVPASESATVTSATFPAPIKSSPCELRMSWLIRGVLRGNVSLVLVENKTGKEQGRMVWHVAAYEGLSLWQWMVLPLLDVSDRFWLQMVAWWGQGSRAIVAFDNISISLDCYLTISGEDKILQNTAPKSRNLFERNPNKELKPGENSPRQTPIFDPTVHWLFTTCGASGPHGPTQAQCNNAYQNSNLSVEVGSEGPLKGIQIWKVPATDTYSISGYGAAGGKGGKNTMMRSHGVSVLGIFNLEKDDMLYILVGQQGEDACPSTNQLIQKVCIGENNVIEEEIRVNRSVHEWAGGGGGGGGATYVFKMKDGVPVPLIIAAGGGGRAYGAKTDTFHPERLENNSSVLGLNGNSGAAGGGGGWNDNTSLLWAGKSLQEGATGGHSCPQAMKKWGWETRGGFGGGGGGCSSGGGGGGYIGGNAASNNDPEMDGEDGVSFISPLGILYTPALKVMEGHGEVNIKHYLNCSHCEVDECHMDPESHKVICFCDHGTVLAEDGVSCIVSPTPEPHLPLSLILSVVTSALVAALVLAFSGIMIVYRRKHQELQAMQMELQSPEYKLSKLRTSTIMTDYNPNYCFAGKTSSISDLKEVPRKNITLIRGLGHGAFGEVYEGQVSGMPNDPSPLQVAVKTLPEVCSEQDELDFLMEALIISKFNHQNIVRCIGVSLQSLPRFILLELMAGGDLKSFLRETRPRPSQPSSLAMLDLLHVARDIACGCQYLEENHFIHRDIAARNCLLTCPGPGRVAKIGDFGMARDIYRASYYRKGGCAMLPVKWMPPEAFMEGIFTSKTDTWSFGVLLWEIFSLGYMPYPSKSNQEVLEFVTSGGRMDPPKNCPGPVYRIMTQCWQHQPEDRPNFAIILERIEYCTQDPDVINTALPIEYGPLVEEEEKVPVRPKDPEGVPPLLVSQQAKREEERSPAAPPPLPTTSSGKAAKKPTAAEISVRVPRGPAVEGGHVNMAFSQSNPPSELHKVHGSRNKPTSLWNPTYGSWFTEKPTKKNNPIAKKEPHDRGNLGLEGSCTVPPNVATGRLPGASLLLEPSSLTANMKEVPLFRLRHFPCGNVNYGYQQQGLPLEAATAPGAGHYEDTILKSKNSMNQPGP
Sequence of baculovirus-expressed JAK2 kinase (O60674 whole entry): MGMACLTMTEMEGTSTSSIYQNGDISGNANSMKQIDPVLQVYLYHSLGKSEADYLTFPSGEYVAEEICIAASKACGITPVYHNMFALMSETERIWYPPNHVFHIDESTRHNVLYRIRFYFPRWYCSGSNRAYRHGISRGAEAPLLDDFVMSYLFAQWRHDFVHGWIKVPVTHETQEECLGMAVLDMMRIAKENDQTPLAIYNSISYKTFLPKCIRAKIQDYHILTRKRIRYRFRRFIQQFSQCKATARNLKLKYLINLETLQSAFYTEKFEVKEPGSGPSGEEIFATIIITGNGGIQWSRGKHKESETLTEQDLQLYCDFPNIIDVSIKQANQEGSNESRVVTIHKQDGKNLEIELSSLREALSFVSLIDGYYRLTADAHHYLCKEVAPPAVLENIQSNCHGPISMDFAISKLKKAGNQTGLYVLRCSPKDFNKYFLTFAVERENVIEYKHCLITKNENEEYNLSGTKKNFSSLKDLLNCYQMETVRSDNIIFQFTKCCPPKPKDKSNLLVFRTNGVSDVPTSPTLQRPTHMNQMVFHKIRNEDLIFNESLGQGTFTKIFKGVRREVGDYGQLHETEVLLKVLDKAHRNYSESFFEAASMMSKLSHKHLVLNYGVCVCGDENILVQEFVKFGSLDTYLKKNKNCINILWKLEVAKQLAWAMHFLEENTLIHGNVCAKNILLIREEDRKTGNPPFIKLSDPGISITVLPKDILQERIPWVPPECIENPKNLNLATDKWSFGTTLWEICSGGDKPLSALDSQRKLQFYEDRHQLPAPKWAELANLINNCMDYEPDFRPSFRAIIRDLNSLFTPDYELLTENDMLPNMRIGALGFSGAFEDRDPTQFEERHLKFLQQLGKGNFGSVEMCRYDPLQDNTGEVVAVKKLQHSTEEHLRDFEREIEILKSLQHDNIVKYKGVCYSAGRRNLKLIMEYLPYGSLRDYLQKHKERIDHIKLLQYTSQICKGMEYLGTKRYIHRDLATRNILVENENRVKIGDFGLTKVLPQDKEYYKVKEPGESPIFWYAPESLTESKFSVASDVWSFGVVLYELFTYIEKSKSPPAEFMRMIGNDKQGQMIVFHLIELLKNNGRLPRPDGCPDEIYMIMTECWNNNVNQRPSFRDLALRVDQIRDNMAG

SMILES | IC50 [1] [nM] | IC50 [2] [nM]
O=C(NC1CC1)[C@@H]1[C@H](Nc2c(Cl)cnc3[nH]c(-c4sc(N5CCOCC5)nc4Cl)nc23)[C@H]2C=C[C@@H]1C2 [Compound CLXXIV, (1S,2S,3R,4R)-3-[6-Chloro-2-(4-chloro-2-morpholin-4-yl-thiazol-5-yl)-3H-imidazo[4,5-b]pyridin-7-ylamino]-bicyclo[2.2.1]hept-5-ene-2-carboxylic acid cyclopropylamide] | 100 to 1000 | < 100
COc1cc(OC(F)(F)F)ccc1-c1nc2c(N[C@H]3[C@@H](C(N)=O)[C@@H]4C=C[C@H]3C4)c(Cl)cnc2[nH]1 [Compound XVIII, (1S,2S,3R,4R)-3-[6-Chloro-2-(2-methoxy-4-trifluoromethoxy-phenyl)-3H-imidazo[4,5-b]pyridine-7-ylamino]-bicyclo[2.2.1]hept-5-ene-2-carboxylic acid amide] | 100 to 1000 | < 100
CC(=O)N1CCC(n2cc(-c3nc4c(N[C@H]5[C@@H](C(N)=O)[C@@H]6C=C[C@H]5C6)c(Cl)cnc4[nH]3)cn2)CC1 [Compound LXI, (1S,2S,3R,4R)-3-{2-[1-(1-Acetyl-piperidin-4-yl)-1H-pyrazol-4-yl]-6-chloro-3H-imidazo[4,5-b]pyridine-7-ylamino}-bicyclo[2.2.1]hept-5-ene-2-carboxylic acid amide] | < 100 | 100 to 1000
COc1ncc(-c2nc3c(N[C@H]4[C@@H](C(N)=O)[C@@H]5C=C[C@H]4C5)c(Cl)cnc3[nH]2)s1 [Compound CCIX, (1S,2S,3R,4R)-3-(6-chloro-2-(2-methoxythiazol-5-yl)-3H-imidazo[4,5-b]pyridin-7-ylamino)bicyclo[2.2.1]hept-5-ene-2-carboxamide] | < 100 | 100 to 1000
CN(C)c1cccc(-c2nc3c(N[C@@H]4[C@H](C(N)=O)[C@H]5C=C[C@@H]4C5)c(Cl)cnc3[nH]2)c1 [Compound XXIV, (1R,2R,3S,4S)-3-[6-Chloro-2-(3-dimethylamino-phenyl)-3H-imidazo[4,5-b]pyridine-7-ylamino]-bicyclo[2.2.1]hept-5-ene-2-carboxylic acid amide] | 100 to 1000 | > 10000
NC(=O)[C@@H]1[C@H](Nc2c(Cl)cnc3[nH]c(-c4ccc(Cl)cc4)nc23)[C@H]2C=C[C@@H]1C2 [Compound CXLI, (1S,2S,3R,4R)-3-[6-Chloro-2-(4-chloro-phenyl)-3H-imidazo[4,5-b]pyridin-7-ylamino]-bicyclo[2.2.1]hept-5-ene-2-carboxylic acid amide] | < 100 | 100 to 1000
CC(O)CN1CCN(C(=O)COc2cccc(-c3nc4c(N[C@H]5[C@@H](C(N)=O)[C@@H]6C=C[C@H]5C6)c(Cl)cnc4[nH]3)c2)CC1 (stereo partly drawn) [Compound CCXLI, (1S,2S,3R,4R)-3-(6-chloro-2-(3-(2-(4-(2-hydroxypropyl)piperazin-1-yl)-2-oxoethoxy)phenyl)-3H-imidazo[4,5-b]pyridin-7-ylamino)bicyclo[2.2.1]hept-5-ene-2-carboxamide] | < 100 | 100 to 1000
Cn1cc(-c2nc3c(NC45CCC(C)(C(=O)C4)C5(C)C)c(Cl)cnc3[nH]2)cn1 (stereo not shown) [Compound CXCIX, 4-(6-chloro-2-(1-methyl-1H-pyrazol-4-yl)-3H-imidazo[4,5-b]pyridin-7-ylamino)-1,7,7-trimethylbicyclo[2.2.1]heptan-2-one] | < 100 | 1000 to 10000
CN(C)CCOc1ccc(-c2nc3c(N[C@H]4[C@@H](C(=O)N(C)C)[C@@H]5C=C[C@H]4C5)c(Cl)cnc3[nH]2)cc1 [Compound CLXXVII, (1S,2S,3R,4R)-3-[6-Chloro-2-[4-(2-dimethylamino-ethoxy)-phenyl]-3H-imidazo[4,5-b]pyridin-7-ylamino]-bicyclo[2.2.1]hept-5-ene-2-carboxylic acid dimethylamide] | < 100 | 100 to 1000
COc1ccncc1-c1nc2c(N[C@H]3[C@@H](C(N)=O)[C@@H]4C=C[C@H]3C4)c(Cl)cnc2[nH]1 [Compound XXXV, (1S,2S,3R,4R)-3-[6-Chloro-2-(4-methoxy-pyridin-3-yl)-3H-imidazo[4,5-b]pyridine-7-ylamino]-bicyclo[2.2.1]hept-5-ene-2-carboxylic acid amide] | 100 to 1000 | 100 to 1000
COc1cc(CN2CC[C@@H](O)C2)ccc1-c1nc2c(N[C@H]3[C@@H](C(N)=O)[C@@H]4C=C[C@H]3C4)c(Cl)cnc2[nH]1 [Compound XLVII, (1S,2S,3R,4R)-3-(6-Chloro-2-[4-((R)-3-hydroxy-pyrrolidin-1-ylmethyl)-2-methoxyphenyl]-3H-imidazo[4,5-b]pyridine-7-ylamino)-bicyclo[2.2.1]hept-5-ene-2-carboxylic acid amide] | < 100 | < 100

The remaining lines, values ahead:

IC50 [1] [nM] | IC50 [2] [nM] | SMILES
< 100 | 100 to 1000 | NC(=O)[C@@H]1[C@H](Nc2c(Cl)cnc3[nH]c(-c4ccnc(N5CCOCC5)c4)nc23)[C@H]2C=C[C@@H]1C2 [Compound CXXVI, (1S,2S,3R,4R)-3-[6-Chloro-2-(2-morpholin-4-yl-pyridin-4-yl)-3H-imidazo[4,5-b]pyridin-7-ylamino]-bicyclo[2.2.1]hept-5-ene-2-carboxylic acid amide]
< 100 | < 100 | CN1CCN(c2nc(Cl)c(-c3nc4c(N[C@H]5[C@@H](C(N)=O)[C@@H]6C=C[C@H]5C6)c(Cl)cnc4[nH]3)s2)CC1 [Compound CCXII, (1S,2S,3R,4R)-3-(6-chloro-2-(4-chloro-2-(4-methylpiperazin-1-yl)thiazol-5-yl)-3H-imidazo[4,5-b]pyridin-7-ylamino)bicyclo[2.2.1]hept-5-ene-2-carboxamide]
< 100 | 100 to 1000 | NC(=O)[C@@H]1[C@H](Nc2c(Cl)cnc3[nH]c(-c4cccc(Cl)c4)nc23)[C@H]2C=C[C@@H]1C2 [Compound CXL, (1S,2S,3R,4R)-3-[6-Chloro-2-(3-chloro-phenyl)-3H-imidazo[4,5-b]pyridin-7-ylamino]-bicyclo[2.2.1]hept-5-ene-2-carboxylic acid amide]
< 100 | < 100 | CN(C)c1nc(Cl)c(-c2nc3c(N[C@H]4[C@@H](C(N)=O)[C@@H]5C=C[C@H]4C5)c(Br)cnc3[nH]2)s1 [Compound CLV, (1S,2S,3R,4R)-3-[6-Bromo-2-(4-chloro-2-dimethylamino-thiazol-5-yl)-3H-imidazo[4,5-b]pyridin-7-ylamino]-bicyclo[2.2.1]hept-5-ene-2-carboxylic acid amide]
< 100 | < 100 | CN1CCN(c2nc(Cl)c(-c3nc4c(N[C@H]5[C@@H](C(=O)N(C)C)[C@@H]6C=C[C@H]5C6)c(Cl)cnc4[nH]3)s2)CC1 [Compound CCLXIV, (1S,2S,3R,4R)-3-((6-chloro-2-(4-chloro-2-(4-methylpiperazin-1-yl)thiazol-5-yl)-3H-imidazo[4,5-b]pyridin-7-yl)amino)-N,N-dimethylbicyclo[2.2.1]hept-5-ene-2-carboxamide]
< 100 | < 100 | NC(=O)[C@@H]1[C@H](Nc2c(Br)cnc3[nH]c(-c4sc(N5CCCC5)nc4Cl)nc23)[C@H]2C=C[C@@H]1C2 [Compound CLXVII, (1S,2S,3R,4R)-3-[6-Bromo-2-(4-chloro-2-pyrrolidin-1-yl-thiazol-5-yl)-3H-imidazo[4,5-b]pyridin-7-ylamino]-bicyclo[2.2.1]hept-5-ene-2-carboxylic acid amide]
